In US5739291A, “Glutamate receptor antibodies” (The Salk Institute For Biological Studies, priority 1995, dated 1998):
Like-named read-outs stand apart in the source and are kept apart here.

Columns and labels:
GluR1 = target: T1, GluR1 (Rattus norvegicus, UniProt P19490); test: Voltage-clamp recording in Xenopus oocytes injected with GluR1 in vitro RNA; format: cell-based; settings: for inhibition of kainate-evoked depolarizations (in words) / agonist properties (in words): each at 1 mM
T1 construct: expressed in transfected cells; host or cells: Xenopus oocytes injected with GluR1 in vitro sense RNA
From the text: Either a λZAP cDNA preparation, or a plasmid containing the cDNA to be tested, are cut downstream from the cDNA insert with a restriction enzyme. The post-restriction digest is digested with Proteinase K and then extracted with two phenol: chloroform (1:1) extractions. The resulting DNA fragments are then ethanol precipitated. The precipitated fragments are mixed with either T3 RNA polymerase (to make sense strand), or T7 RNA polymerase (to make anti-sense strand), plus rATP, rCTP, rGTP, rUTP, and RNase inhibitor. Simultaneously, the RNA transcripts are capped with a sodium diguanosine triphosphate [G(5')ppp(5')G] cap. The water used for the above procedures is treated with diethylpyrocarbonate to inactivate RNases.
The in vitro synthesized mRNA transcripts are injected into Xenopus oocytes. 50 nl of an RNA solution, 0.2-0.6 mg/ml, is injected into the stage V oocytes. The injected oocytes are incubated at 16° C. in Barth's medium for 2-7 days before they are analyzed for the presence of functional receptors.
Voltage recordings are made by penetrating the oocyte with a micro-electrode filled with 3M KCl and connected to the bridge circuit of an appropriate voltage clamp unit, e.g., the Dagan 8500 voltage clamp unit. Voltage recordings are preferably obtained with two electrodes, a voltage electrode filled with 3M KCl and a current electrode filled with 0.25M CsCl, 0.25M CsF and 50 mM EGTA (ethylene glycol tetraacetic acid).
Oocytes employed herein are obtained from ovarian tissue from anesthetized adult female Xenopus. The ovarian tissue is treated with collagenase, 2 mg/ml, for two hours and then the ovarian epithelium and follicular cells are dissected away.
The plasmid pGluR1 was subsequently rescued from bacteriophage λZAPII-GluR1.
3 days prior to the recording. The oocytes were voltageclamped at -70 mV,
applied by rapid superfusion, with 5 minute intervals between drugs. Peak
currents were recorded; each number represents the average of 3 recording
from 3 different oocytes, ± SEM.
(§1) The data in FIG. 3B represent the responses of oocytes to the indicated agonists measured 3 days after injection with GluR1 (2 ng) or GluR3 (2 ng) RNA or adult rat brain hippocampus poly(A)^+ RNA (~50 ng). All values are normalized to the response obtained with […] and are presented as the mean ± S.E.M. with n≥3 for all measurements.

homomeric GluR6 receptor = target: T2, homomeric GluR6 receptor (Rattus norvegicus, UniProt P42260, I567V/Q621R/Y571C); test: Homomeric GluR6 ion channel in Xenopus oocytes injected with in vitro transcribed RNA; format: cell-based; settings: for current at -70 mV: 10 μM kainate; for responsiveness of homomeric ion channels: summary statement
T2 construct: A 4559 base pair cDNA encoding a protein of 884 amino acid residues was engineered from RC11 and RC27; expressed in transfected cells; host or cells: Xenopus oocytes injected with in vitro transcribed GluR6 RNA

kainate receptor = format: cell-based, rat
Method: A directional cDNA library (λZAPII RTB1; complexity: 8×10^5 elements), consisting of 18 independent sublibraries of 44,000 clones each, was constructed from this poly(A)^+ RNA using the bacteriophage expression vector λZAPII. A pool of in vitro transcripts, comprised of transcripts made separately from all 18 amplified sublibraries, was injected into oocytes. […] Subsequently, pools of 44,000 clones (=the single sublibraries), 4,000, 400 and 40 clones were tested.

GluR3 = GluR3 (Rattus norvegicus, UniProt P19492); format: cell-based
Method: Thus, oocytes were injected with in vitro synthesized RNA transcripts derived from individual cDNA clones.
as §1

GluR5-1 = GluR5-1 (Rattus norvegicus, UniProt P22756); format: cell-based
From the text: (§2) In vitro synthesized GluR5-1 and GluR5-2 cRNAs were individually expressed in Xenopus oocytes.

GluR5-2 = GluR5-2 (Rattus norvegicus, UniProt P22756); format: cell-based
From the text: as §2

[1] = tested on: glutamate receptor subtypes; format: cell-based, rat; settings: 2-10 days after injection
[2] = target: kainate receptors derived from forebrain mRNA; settings: read-out: Ki for block of kainate responses; literature value (Verdoorn et al.); cited from earlier work
[3] = oocytes held at -100 mV, before Con A, AMPA 100 μM
[4] = QUIS 10 μM, AMPA 50 μM, GLU 100 μM, NMDA 30 μM plus 10 μM glycine, APB 50 μM, -70 mV, 2 ng RNA, 3 days

T2 sequence (P42260 with tags, fused parts or gaps I567V/Y571C/Q621R): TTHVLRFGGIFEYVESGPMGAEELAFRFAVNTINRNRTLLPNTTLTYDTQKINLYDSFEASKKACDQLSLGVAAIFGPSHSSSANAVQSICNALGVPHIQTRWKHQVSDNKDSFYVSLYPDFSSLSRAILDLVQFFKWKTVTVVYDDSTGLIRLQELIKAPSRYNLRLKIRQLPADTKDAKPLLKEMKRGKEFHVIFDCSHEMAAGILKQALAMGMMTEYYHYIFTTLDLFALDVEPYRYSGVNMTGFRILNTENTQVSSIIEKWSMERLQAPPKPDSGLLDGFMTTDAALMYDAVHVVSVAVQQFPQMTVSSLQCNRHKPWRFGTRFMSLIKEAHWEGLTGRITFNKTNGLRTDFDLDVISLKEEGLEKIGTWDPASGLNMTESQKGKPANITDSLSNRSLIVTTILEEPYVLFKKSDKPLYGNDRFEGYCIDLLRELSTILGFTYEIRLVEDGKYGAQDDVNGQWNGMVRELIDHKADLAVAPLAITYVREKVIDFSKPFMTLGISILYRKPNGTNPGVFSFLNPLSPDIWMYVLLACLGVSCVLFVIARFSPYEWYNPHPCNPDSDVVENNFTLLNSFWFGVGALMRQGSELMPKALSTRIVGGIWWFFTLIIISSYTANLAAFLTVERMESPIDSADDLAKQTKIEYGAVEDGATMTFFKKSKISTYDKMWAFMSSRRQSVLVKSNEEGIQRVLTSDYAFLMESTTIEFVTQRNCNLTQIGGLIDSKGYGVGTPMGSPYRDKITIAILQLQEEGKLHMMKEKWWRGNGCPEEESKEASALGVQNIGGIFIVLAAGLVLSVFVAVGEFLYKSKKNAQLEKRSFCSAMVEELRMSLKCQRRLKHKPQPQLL
T1 sequence (P19490 19-907 S67T/A248R/S789T): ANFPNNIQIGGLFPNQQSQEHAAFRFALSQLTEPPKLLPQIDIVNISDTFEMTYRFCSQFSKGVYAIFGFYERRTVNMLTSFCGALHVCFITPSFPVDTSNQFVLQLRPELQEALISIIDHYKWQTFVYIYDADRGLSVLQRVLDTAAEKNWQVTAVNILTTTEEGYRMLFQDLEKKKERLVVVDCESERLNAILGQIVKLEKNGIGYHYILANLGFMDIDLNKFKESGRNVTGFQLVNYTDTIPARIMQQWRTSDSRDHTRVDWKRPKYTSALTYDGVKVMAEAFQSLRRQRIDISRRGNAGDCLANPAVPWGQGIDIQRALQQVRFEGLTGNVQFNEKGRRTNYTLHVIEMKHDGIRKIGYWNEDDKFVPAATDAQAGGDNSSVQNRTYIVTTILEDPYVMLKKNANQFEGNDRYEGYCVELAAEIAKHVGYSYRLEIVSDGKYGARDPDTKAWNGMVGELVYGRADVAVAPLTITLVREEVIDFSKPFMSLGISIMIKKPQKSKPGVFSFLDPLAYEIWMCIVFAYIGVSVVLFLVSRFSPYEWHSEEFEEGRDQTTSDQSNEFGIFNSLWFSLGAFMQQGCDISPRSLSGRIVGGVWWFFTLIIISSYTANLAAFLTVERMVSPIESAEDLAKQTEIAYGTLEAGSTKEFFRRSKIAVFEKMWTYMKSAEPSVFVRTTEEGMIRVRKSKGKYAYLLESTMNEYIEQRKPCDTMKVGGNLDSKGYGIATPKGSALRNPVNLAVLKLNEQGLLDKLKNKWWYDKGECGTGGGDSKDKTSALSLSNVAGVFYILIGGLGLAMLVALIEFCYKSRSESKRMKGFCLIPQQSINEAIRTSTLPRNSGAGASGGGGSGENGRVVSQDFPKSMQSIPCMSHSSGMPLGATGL
GluR5-1, sequence (P22756 with tags, fused parts or gaps K282L/C354W/A355R/A477G/DEL870-898): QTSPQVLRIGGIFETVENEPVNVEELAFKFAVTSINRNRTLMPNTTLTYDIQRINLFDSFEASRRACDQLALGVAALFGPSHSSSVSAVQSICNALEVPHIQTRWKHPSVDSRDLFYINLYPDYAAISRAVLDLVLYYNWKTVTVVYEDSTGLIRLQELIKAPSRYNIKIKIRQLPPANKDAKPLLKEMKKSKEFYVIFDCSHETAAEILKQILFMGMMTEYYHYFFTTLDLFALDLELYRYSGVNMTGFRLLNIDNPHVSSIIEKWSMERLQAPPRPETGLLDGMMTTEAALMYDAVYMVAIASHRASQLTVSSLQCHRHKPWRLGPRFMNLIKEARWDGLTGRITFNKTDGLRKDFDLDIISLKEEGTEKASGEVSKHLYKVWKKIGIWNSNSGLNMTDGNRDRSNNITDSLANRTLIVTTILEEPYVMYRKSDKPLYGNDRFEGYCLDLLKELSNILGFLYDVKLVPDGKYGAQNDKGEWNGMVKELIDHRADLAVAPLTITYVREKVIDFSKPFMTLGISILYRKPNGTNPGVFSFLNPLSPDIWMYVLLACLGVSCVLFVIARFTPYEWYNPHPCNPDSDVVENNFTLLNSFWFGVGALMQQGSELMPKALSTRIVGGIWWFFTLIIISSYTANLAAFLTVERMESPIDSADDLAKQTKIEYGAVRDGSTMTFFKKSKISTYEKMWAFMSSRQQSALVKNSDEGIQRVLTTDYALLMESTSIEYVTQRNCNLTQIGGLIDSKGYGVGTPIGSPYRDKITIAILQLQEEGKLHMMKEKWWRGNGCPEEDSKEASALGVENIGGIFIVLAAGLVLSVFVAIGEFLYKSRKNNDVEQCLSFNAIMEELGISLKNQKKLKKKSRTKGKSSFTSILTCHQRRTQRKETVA
GluR5-2, sequence (P22756 31-949): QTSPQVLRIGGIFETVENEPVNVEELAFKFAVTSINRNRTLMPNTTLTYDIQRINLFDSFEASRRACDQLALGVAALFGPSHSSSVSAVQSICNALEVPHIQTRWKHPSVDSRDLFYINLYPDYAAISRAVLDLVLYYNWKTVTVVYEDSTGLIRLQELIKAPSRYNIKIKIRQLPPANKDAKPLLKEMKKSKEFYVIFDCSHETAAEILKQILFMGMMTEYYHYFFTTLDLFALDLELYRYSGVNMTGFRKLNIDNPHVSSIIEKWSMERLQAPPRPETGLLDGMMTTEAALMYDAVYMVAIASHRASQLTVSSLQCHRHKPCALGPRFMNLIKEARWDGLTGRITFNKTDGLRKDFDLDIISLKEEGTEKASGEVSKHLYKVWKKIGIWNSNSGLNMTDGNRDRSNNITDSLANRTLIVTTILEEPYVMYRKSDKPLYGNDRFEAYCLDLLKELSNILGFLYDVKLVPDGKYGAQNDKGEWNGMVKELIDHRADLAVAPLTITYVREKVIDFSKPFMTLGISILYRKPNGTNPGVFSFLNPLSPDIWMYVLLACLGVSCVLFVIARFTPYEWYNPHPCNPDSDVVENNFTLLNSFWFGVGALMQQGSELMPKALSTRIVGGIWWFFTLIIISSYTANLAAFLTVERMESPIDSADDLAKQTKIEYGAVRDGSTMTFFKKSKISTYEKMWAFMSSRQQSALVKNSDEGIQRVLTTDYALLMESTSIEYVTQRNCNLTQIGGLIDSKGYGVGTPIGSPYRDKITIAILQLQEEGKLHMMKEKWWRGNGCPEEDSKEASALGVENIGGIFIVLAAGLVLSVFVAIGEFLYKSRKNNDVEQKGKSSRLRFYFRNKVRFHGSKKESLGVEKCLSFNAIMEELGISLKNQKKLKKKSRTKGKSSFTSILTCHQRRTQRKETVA
GluR3, sequence (P19492 23-888): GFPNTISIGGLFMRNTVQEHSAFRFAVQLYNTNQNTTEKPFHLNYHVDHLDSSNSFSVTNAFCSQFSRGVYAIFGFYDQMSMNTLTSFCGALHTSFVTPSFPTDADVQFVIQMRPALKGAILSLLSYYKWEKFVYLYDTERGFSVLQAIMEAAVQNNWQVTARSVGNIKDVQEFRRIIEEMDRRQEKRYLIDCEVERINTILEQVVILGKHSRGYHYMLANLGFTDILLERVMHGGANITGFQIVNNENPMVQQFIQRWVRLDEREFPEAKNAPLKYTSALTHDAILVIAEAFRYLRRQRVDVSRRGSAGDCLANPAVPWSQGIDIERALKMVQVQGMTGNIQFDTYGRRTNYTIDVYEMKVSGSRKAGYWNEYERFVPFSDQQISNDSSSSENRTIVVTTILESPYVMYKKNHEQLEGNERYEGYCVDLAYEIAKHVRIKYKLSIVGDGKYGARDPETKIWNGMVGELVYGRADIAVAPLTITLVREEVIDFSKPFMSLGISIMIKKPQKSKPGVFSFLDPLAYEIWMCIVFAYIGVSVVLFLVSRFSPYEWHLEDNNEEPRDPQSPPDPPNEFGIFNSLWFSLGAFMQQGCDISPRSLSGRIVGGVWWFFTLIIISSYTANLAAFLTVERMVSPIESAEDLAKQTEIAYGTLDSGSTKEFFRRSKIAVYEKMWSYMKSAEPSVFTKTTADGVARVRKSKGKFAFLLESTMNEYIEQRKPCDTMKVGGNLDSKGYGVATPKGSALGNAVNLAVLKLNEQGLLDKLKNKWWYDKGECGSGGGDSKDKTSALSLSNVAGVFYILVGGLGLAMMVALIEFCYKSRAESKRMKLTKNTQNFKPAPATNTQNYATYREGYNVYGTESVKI

C=C(C)[C@H]1CN[C@H](C(=O)O)[C@H]1CC(=O)O [kainate, kainic acid]
desensitization of responses (GluR1; prolonged (up to 10 minutes) superfusion, 100 μM agonist): did not desensitize
current at -70 mV (homomeric GluR6 receptor; Con A treated, modified Ringer solution (sodium methanesulfonate)): 330 nA
current at -70 mV (homomeric GluR6 receptor; Ringer solution, after Con A treatment): 2.3 μa
current at -70 mV (homomeric GluR6 receptor; Ringer solution, before Con A treatment): 30 nA
response of Con A treated oocytes (homomeric GluR6 receptor; 100 μM aspartate, 100 μM NMDA with 3 μM glycine, 10-1000 μM AMPA): responded
time to full recovery from desensitization (homomeric GluR6 receptor; 100 μM kainate for 30 seconds): approximately 15 minutes
inward current evoked (homomeric GluR6 receptor; [3]): evoked inward currents that desensitized
responsiveness of homomeric ion channels (homomeric GluR6 receptor): responsive to KA

CS(=O)(=O)O [methanesulfonate, sodium methanesulfonate]
reduction of kainate-evoked current (homomeric GluR6 receptor; 95% of Cl- substituted by methanesulfonate): 8 fold

O=C(O)c1cc(=O)c2ccccc2[nH]1 [Kynurenic acid]
inhibition of kainate-evoked depolarizations (in words) (GluR1): most potent inhibitor
Compound Alone (%): % of the response evoked by 30 μM kainate immediately before drug application (GluR1; xenopus oocytes, 1000 µM): 3.4 ± 0.2%
Compound Plus Kainate (%): % of the response seen with 30 μM kainate alone (GluR1; xenopus oocytes, 1000 µM): 9.6 ± 1.3%

NCCc1c[nH]c2ccc(O)cc12 [serotonin]
responses evoked by unrelated neurotransmitter receptor agonists (GluR1; concentrations as high as 1 mM): failed to evoke responses

C/C(=C/C=C/[C@@H](C)C(=O)O)[C@H]1CN[C@H](C(=O)O)[C@H]1CC(=O)O [domoate, domoic acid]
response compared with kainate (kainate receptor; 10 μM domoate vs 100 μM kainate): response similar to the one elicited by 100 μM kainate

NC(CCP(=O)(O)O)C(=O)O (centres unmarked) [APB, 2-amino-4-phosphonobutyric acid]
response to agonist (GluR1; [4]): No detectable responses
response to agonist (GluR3; [4]): No detectable responses
membrane depolarizations elicited (GluR5-1; AMPA 50 μM, quisqualate 10 μM, APB 100 μM, NMDA 100 μM with 10 μM glycine): did not elicit membrane depolarizations
membrane depolarizations elicited (GluR5-2; KA 100 MM, AMPA 50 μM, quisqualate 10 μM, APB 100 μM, NMDA 100 μM with 10 μM glycine): did not elicit membrane depolarizations
response to selective agonists [1]: gave no response

Cc1onc(O)c1CC(N)C(=O)O (stereo not drawn) [AMPA, α-amino-3-hydroxy-5-methyl-isoxazole-4-propionic acid]
effect on kainate-evoked current (homomeric GluR6 receptor): nor did it antagonize a kainate-evoked current
response of Con A treated oocytes (homomeric GluR6 receptor): did not respond
effect of coapplication on kainate-evoked (1 μM) responses (homomeric GluR6 receptor; AMPA 100 μM, Con A treated oocytes): had no effect
inward current evoked (homomeric GluR6 receptor; [3]): did not evoke any detectable current
responsiveness of homomeric ion channels (homomeric GluR6 receptor): but not to AMPA

CN[C@H](CC(=O)O)C(=O)O [NMDA, N-methyl-D-aspartic acid]
response to agonist (GluR1): No detectable responses
responses evoked by other glutamate receptor agonists (GluR1): evoked no responses
agonist properties (in words) (GluR1): did not show any agonist properties
inhibition of kainate-evoked depolarizations (in words) (GluR1): slightly inhibited the KA responses
response to agonist (GluR3): No detectable responses
membrane depolarizations elicited (GluR5-1): did not elicit membrane depolarizations
membrane depolarizations elicited (GluR5-2): did not elicit membrane depolarizations
response of Con A treated oocytes (homomeric GluR6 receptor): did not respond
response to selective agonists [1]: elicited smooth responses with fast onsets
responses detected (kainate receptor): No responses

N[C@H](CCC(=O)NCC(=O)O)C(=O)O [γ-DGG, D-glutamylglycine]
inhibition of kainate-evoked depolarizations (in words) (GluR1): inhibited kainate responses
Compound Alone (%): % of the response evoked by 30 μM kainate immediately before drug application (GluR1; xenopus oocytes, 1000 µM): -0.1 ± 0.5%
Compound Plus Kainate (%): % of the response seen with 30 μM kainate alone (GluR1; xenopus oocytes, 1000 µM): 30.8 ± 1.1%

O=C(O)[C@H]1CCCN[C@H]1C(=O)O (relative stereo) [PDA, 2,3cis-piperidine dicarboxylic acid]
inhibition of kainate-evoked depolarizations (in words) (GluR1): blocked the GluR1 response
Compound Alone (%): % of the response evoked by 30 μM kainate immediately before drug application (GluR1; xenopus oocytes, 1000 µM): 2.5 ± 0.7%
Compound Plus Kainate (%): % of the response seen with 30 μM kainate alone (GluR1; xenopus oocytes, 1000 µM): 31.3 ± 2.0%

O=C(O)C1CN(CCCP(=O)(O)O)CCN1 (centres unmarked) [CPP]
agonist properties (in words) (GluR1): did not show any agonist properties
inhibition of kainate-evoked depolarizations (in words) (GluR1): slightly inhibited the KA responses
Compound Alone (%): % of the response evoked by 30 μM kainate immediately before drug application (GluR1; xenopus oocytes, 1000 µM): 9.1 ± 0.7%
Compound Plus Kainate (%): % of the response seen with 30 μM kainate alone (GluR1; xenopus oocytes, 1000 µM): 78.8 ± 0.9%

N[C@@H](Cn1oc(=O)[nH]c1=O)C(=O)O [quisqualate, quisqualic acid]
membrane depolarizations elicited (GluR5-1): did not elicit membrane depolarizations
membrane depolarizations elicited (GluR5-2): did not elicit membrane depolarizations
effect on kainate-evoked current (homomeric GluR6 receptor): attenuated a subsequent kainate evoked current
inward current evoked (homomeric GluR6 receptor): activated only small inward currents

NCCCC(=O)O [γ-aminobutyric acid]
responses evoked by unrelated neurotransmitter receptor agonists (GluR1; concentrations as high as 1 mM): failed to evoke responses

N#Cc1cc2[nH]c(=O)c(=O)[nH]c2cc1[N+](=O)[O-] [CNQX, 6-nitro-7-cyano-quinoxaline-2,3-dione]
block of agonist-evoked responses (homomeric GluR6 receptor): blocked both quisqualate and kainate-evoked responses
Ki [2]: 295 nM

NC(CCCP(=O)(O)O)C(=O)O (centres unmarked) [APV, 2amino-5-phospho-novaleric acid]
agonist properties (in words) (GluR1): did not show any agonist properties
inhibition of kainate-evoked depolarizations (in words) (GluR1): slightly inhibited the KA responses
Compound Plus Kainate (%): % of the response seen with 30 μM kainate alone (GluR1; test compounds 1 mM plus 30 μM kainate, -70 mV, peak currents, average of 3 oocytes ± SEM): 73.7 ± 3.2%
Compound Alone (%): % of the response evoked by 30 μM kainate immediately before drug application (GluR1; test compounds 1 mM, kainate 30 μM, -70 mV, peak currents, average of 3 oocytes ± SEM): 3.1 ± 1.4%

CCOC(=O)CC[C@H](N)C(=O)OCC [GDEE, glutamate diethylester]
agonist properties (in words) (GluR1): displayed weak agonist properties
inhibition of kainate-evoked depolarizations (in words) (GluR1): did not block the response significantly
Compound Alone (%): % of the response evoked by 30 μM kainate immediately before drug application (GluR1; xenopus oocytes, 1000 µM): 24.8 ± 5.7%
Compound Plus Kainate (%): % of the response seen with 30 μM kainate alone (GluR1; xenopus oocytes, 1000 µM): 97.8 ± 6.6%

NCC(=O)O [glycine]
potentiation of the KA response (GluR1): did not potentiate the KA response
responses evoked by unrelated neurotransmitter receptor agonists (GluR1): failed to evoke responses

CN1CCCC1c1cccnc1 (centres unmarked) [nicotine]
responses evoked by unrelated neurotransmitter receptor agonists (GluR1): failed to evoke responses
